Results taken from ChEMBL document CHEMBL1157845, “Structure-activity relationship of new anti-tuberculosis agents derived from oxazoline and oxazole benzyl esters” (Eur J Med Chem, 2010).
≈ marks a conversion by molar mass, not a printed value. Calls of active or inactive are those of the source. Unless noted, the rule behind the calls is not given here.

What was measured:
[1] = test system: Mycobacterium tuberculosis; experiment: Antimycobacterial activity against Mycobacterium tuberculosis Erdman infected in BALB/c mouse assessed as reduction of bacterial load at 200 mg/kg, po qd for 5 days per week administered 60 days after infection measured after 85 days post infection; assay type: functional, organism-based; parameters: dose 200 mg/kg
[2] = test system: Mycobacterium tuberculosis; experiment: Antimycobacterial activity against Mycobacterium tuberculosis H37Rv; assay type: functional
[3] = test system: Mycolicibacterium smegmatis; experiment: Antimycobacterial activity against Mycobacterium smegmatis; assay type: functional
[4] = test system: Escherichia coli; experiment: Antibacterial activity against Escherichia coli SG 458; assay type: functional, organism-based
[5] = test system: Proteus vulgaris; experiment: Antibacterial activity against Proteus vulgaris OX 19; assay type: functional, organism-based
[6] = test system: Mycolicibacterium smegmatis; experiment: Antimycobacterial activity against Mycobacterium smegmatis SG 987; assay type: functional, organism-based
[7] = test system: Mycolicibacterium aurum; experiment: Antimycobacterial activity against Mycobacterium aurum SB 66; assay type: functional, organism-based
[8] = test system: Mycolicibacterium aurum; experiment: Antimycobacterial activity against Mycobacterium aurum DSM 43536; assay type: functional, organism-based
[9] = test system: Mycolicibacterium vaccae; experiment: Antimycobacterial activity against Mycobacterium vaccae 10670; assay type: functional, organism-based
[10] = test system: Mycolicibacterium fortuitum; experiment: Antimycobacterial activity against Mycobacterium fortuitum B; assay type: functional, organism-based
[11] = test system: Sporobolomyces salmonicolor; experiment: Antimicrobial activity against Sporobolomyces salmonicolor SBUG 549; assay type: functional, organism-based
[12] = test system: Candida albicans; experiment: Antifungal activity against Candida albicans; assay type: functional, organism-based
[13] = test system: Colletotrichum; experiment: Antifungal activity against Glomerella; assay type: functional, organism-based
[14] = test system: Mycobacterium avium; experiment: Antimycobacterial activity against Mycobacterium avium MAC 100; assay type: functional, organism-based
[15] = test system: Mycobacterium avium; experiment: Antimycobacterial activity against Mycobacterium avium MAC 101; assay type: functional, organism-based
[16] = test system: Mycobacterium avium; experiment: Antimycobacterial activity against Mycobacterium avium MAC 108; assay type: functional, organism-based
[17] = test system: Mycobacterium avium; experiment: Antimycobacterial activity against Mycobacterium avium MAC 109; assay type: functional, organism-based
[18] = test system: Mycobacterium avium; experiment: Antimycobacterial activity against Mycobacterium avium MAC 116; assay type: functional, organism-based
[19] = test system: Mycolicibacterium vaccae; experiment: Antimycobacterial activity against Mycobacterium vaccae 10670 by agar diffusion assay; assay type: functional, organism-based
[20] = test system: Mycolicibacterium fortuitum; experiment: Antimycobacterial activity against Mycobacterium fortuitum B by agar diffusion assay; assay type: functional, organism-based
[21] = test system: Mus musculus; experiment: Toxicity in mouse assessed as change in body weight at 100 mg/kg, po qd for 5 days followed by 2 days rest and 200 mg/kg, po qd for 5 days; assay type: organism-based; details: in vivo
[22] = test system: Mus musculus; experiment: Toxicity in mouse assessed as change in gross appearance at 100 mg/kg, po qd for 5 days followed by 2 days rest and 200 mg/kg, po qd for 5 days; assay type: organism-based; details: in vivo
[23] = test system: Mus musculus; experiment: Toxicity in mouse assessed as behavioral change at 100 mg/kg, po qd for 5 days followed by 2 days rest and 200 mg/kg, po qd for 5 days; assay type: organism-based; details: in vivo
[24] = Chemical stability in simulated gastric fluid assessed as compound remaining after 2 hrs by HPLC analysis; assay type: physicochemical; details: simulated gi fluid
[25] = test system: Liver microsomes; experiment: Metabolic stability in Sprague-Dawley rat microsomes assessed as compound remaining after 15 mins by HPLC analysis; assay type: ADME, Microsome; details: 0.25 h
[26] = test system: Mycobacterium tuberculosis; experiment: Antimycobacterial activity against Mycobacterium tuberculosis H37Rv ATCC 27294 in GAS medium after 1 week by microplate alamar blue assay; assay type: functional; details: H37Rv ATCC 27294, 168 h
[27] = test system: Mycobacterium tuberculosis; experiment: Antimycobacterial activity against Mycobacterium tuberculosis H37Rv ATCC 27294 in GAST medium after 1 week by microplate alamar blue assay; assay type: functional; details: H37Rv ATCC 27294, 168 h
[28] = test system: Vero; experiment: Cytotoxicity against african green monkey Vero cells by colorimetric assay; assay type: cell-based; details: Chlorocebus sabaeus
[29] = test system: Mycobacterium tuberculosis; experiment: Antimycobacterial activity against Mycobacterium tuberculosis H37Rv ATCC 27294 incubated 10 days under anaerobic condition measured after 24 hrs recovery in air by luciferase based low oxygen recovery assay; assay type: functional
[30] = test system: Bacillus subtilis; experiment: Antibacterial activity against Bacillus subtilis ATCC 6633; assay type: functional, organism-based
[31] = test system: Staphylococcus aureus; experiment: Antibacterial activity against Staphylococcus aureus SG 511; assay type: functional, organism-based
[32] = test system: Micrococcus luteus; experiment: Antibacterial activity against Micrococcus luteus ATCC 10240; assay type: functional, organism-based
[33] = test system: Mycobacterium tuberculosis; experiment: Antimycobacterial activity against Mycobacterium tuberculosis; assay type: functional
[34] = test system: Mycobacterium tuberculosis; experiment: Antimycobacterial activity against Mycobacterium tuberculosis Erdman infected in BALB/c mouse assessed as reduction of bacterial load at 50 mg/kg, po qd for 5 days per week administered 60 days after infection measured after 85 days post infection; assay type: functional, organism-based; parameters: dose 50 mg/kg
[35] = test system: Mycobacterium tuberculosis; experiment: Antimycobacterial activity against Mycobacterium tuberculosis Erdman infected in BALB/c mouse assessed as reduction of bacterial load at 10 mg/kg, po qd for 5 days per week administered 60 days after infection measured after 85 days post infection relative to untreated control; assay type: functional
[36] = test system: Mycobacterium tuberculosis; experiment: Antimycobacterial activity against Mycobacterium tuberculosis assessed as growth inhibition at 12.5 ug/mL; assay type: functional

| SMILES | Activity [1] | Activity [4] | Activity [5] | Activity [6] | Activity [7] | Activity [8] | Activity [9] | Activity [10] | Activity [11] | Activity [12] | Activity [13] | Activity [14] | Activity [15] | Activity [16] | Activity [17] | Activity [18] | Activity [19] | Activity [20] | MIC [26] [µM] | IC50 [28] [µM] | also measured |
| --- | --- | --- | --- | --- | --- | --- | --- | --- | --- | --- | --- | --- | --- | --- | --- | --- | --- | --- | --- | --- | --- |
| CCCCCCCCCCCCCCCC(=O)N(O)CCCC[C@H](NC(=O)[C@@H]1COC(c2ccccc2O)=N1)C(=O)OC[C@H](NC(=O)OC(C)(C)C)C(=O)N[C@H]1CCCCN(O)C1=O | inactive | – | – | – | – | – | – | – | – | – | – | – | – | – | – | – | – | – | – | – | MIC [2]: < 0.2 µM; MIC [3]: 0.2 µM (≈ 0.181 µg/mL) |
| O=C(OCc1ccccc1)c1coc(-c2ccccc2Cl)n1 | inactive | inactive | inactive | inactive | inactive | inactive | inactive | inactive | inactive | inactive | inactive | inactive | inactive | inactive | inactive | inactive | Active | Active | 0.73 (≈ 0.229 µg/mL) | > 128 | Activity [21]: Non-toxic; Activity [22]: Non-toxic; Activity [23]: Non-toxic; Stability [24]: 4.2%; Stability [25]: 8.8%; MIC [27]: 1.69 µM (≈ 0.53 µg/mL); MIC [29]: 11.4 µM (≈ 3.58 µg/mL); Activity [30]: inactive; Activity [31]: inactive; Activity [32]: inactive |
| O=C(OCc1ccccc1)[C@@H]1COC(c2ccccc2OCc2ccccc2)=N1 | inactive | – | – | – | – | – | – | – | – | – | – | – | – | – | – | – | – | – | 12.6 (≈ 4.88 µg/mL) | > 128 | Activity [21]: Non-toxic; Activity [22]: Non-toxic; Activity [23]: Non-toxic; Stability [24]: 1.4%; Stability [25]: 8.4%; MIC [33]: 7.7 µM (≈ 2.98 µg/mL); MIC [29]: 67.3 µM (≈ 26.1 µg/mL) |
| O=C(OCc1ccccc1)[C@@H]1COC(c2ccccc2)=N1 | inactive | inactive | inactive | inactive | inactive | inactive | inactive | inactive | inactive | inactive | inactive | inactive | inactive | inactive | inactive | inactive | inactive | Active | 7.2 (≈ 2.03 µg/mL) | > 128 | Activity [21]: Non-toxic; Activity [22]: Non-toxic; Activity [23]: Non-toxic; Stability [24]: 0.4%; Stability [25]: 5.7%; MIC [27]: 4.42 µM (≈ 1.24 µg/mL); MIC [29]: 63 µM (≈ 17.7 µg/mL); Activity [30]: inactive; Activity [31]: inactive; Activity [32]: inactive |
| O=C(OCc1ccccc1)c1coc(-c2ccc(F)c([N+](=O)[O-])c2)n1 | inactive | inactive | inactive | inactive | inactive | inactive | inactive | inactive | inactive | inactive | inactive | inactive | inactive | inactive | inactive | inactive | Active | Active | 1.1 (≈ 0.377 µg/mL) | > 128 | Activity [21]: 12%; Activity [22]: Non-toxic; Activity [23]: Non-toxic; Activity [34]: inactive; Stability [24]: 2.1%; Stability [25]: 8.1%; MIC [27]: 0.48 µM (≈ 0.164 µg/mL); MIC [29]: 31.9 µM (≈ 10.9 µg/mL); Activity [30]: inactive; Activity [31]: inactive; Activity [32]: inactive |
| COc1ccc(-c2nc(C(=O)OCc3ccccc3)co2)cc1 | inactive | inactive | inactive | inactive | inactive | inactive | inactive | inactive | inactive | inactive | inactive | inactive | inactive | inactive | inactive | inactive | Active | Active | 1.72 (≈ 0.532 µg/mL) | > 128 | Activity [21]: Non-toxic; Activity [22]: Non-toxic; Activity [23]: Non-toxic; Stability [24]: 0.4%; Stability [25]: 14%; MIC [27]: 1.8 µM (≈ 0.557 µg/mL); Activity [30]: inactive; Activity [31]: inactive; Activity [32]: inactive |
| O=C(OCc1ccccc1)c1coc(-c2ccccc2)n1 | inactive | inactive | inactive | inactive | inactive | inactive | inactive | inactive | inactive | inactive | inactive | inactive | inactive | inactive | inactive | inactive | Active | Active | 0.47 (≈ 0.131 µg/mL) | 121 | Activity [21]: Non-toxic; Activity [22]: Non-toxic; Activity [23]: Non-toxic; Stability [24]: 0.5%; Stability [25]: 15%; MIC [27]: 0.49 µM (≈ 0.137 µg/mL); MIC [29]: 3.8 µM (≈ 1.06 µg/mL); Activity [30]: inactive; Activity [31]: inactive; Activity [32]: inactive |
| O=C(OCc1ccccc1)[C@@H]1COC(c2ccc(F)c([N+](=O)[O-])c2)=N1 | inactive | inactive | inactive | inactive | inactive | inactive | inactive | inactive | inactive | inactive | inactive | inactive | inactive | inactive | inactive | inactive | Active | Active | 6.24 (≈ 2.15 µg/mL) | > 128 | Activity [21]: Non-toxic; Activity [22]: Non-toxic; Activity [23]: Non-toxic; Stability [24]: 2.2%; Stability [25]: 13%; MIC [27]: 0.95 µM (≈ 0.327 µg/mL); MIC [29]: 26 µM (≈ 8.95 µg/mL); Activity [30]: inactive; Activity [31]: inactive; Activity [32]: inactive |
| CO[C@H]1/C=C/O[C@@]2(C)Oc3c(C)c(O)c4c(O)c(c(/C=N/N5CCN(C)CC5)c(O)c4c3C2=O)NC(=O)/C(C)=C\C=C\[C@H](C)[C@H](O)[C@@H](C)[C@@H](O)[C@@H](C)[C@H](OC(C)=O)[C@@H]1C [RIFAMPIN] | – | – | – | – | – | – | – | – | – | – | – | – | – | – | – | – | – | – | 0.06 (≈ 0.0494 µg/mL) | 125 | fold change (FC) [35]: >2; MIC [27]: 0.01 µM (≈ 0.00823 µg/mL) |
| CCCCCCCCCCCCCCCC(=O)N(O)CCCC[C@H](NC(=O)[C@@H]1COC(c2ccccc2O)=N1)C(=O)O[C@@H](C)CC(=O)N[C@H]1CCCCN(O)C1=O [MYCOBACTIN S] | inactive | inactive | inactive | inactive | inactive | inactive | inactive | inactive | inactive | inactive | inactive | inactive | inactive | inactive | inactive | inactive | Active | Active | – | – | inhibition at 12.5 µg/mL [36]: 99%; MIC [3]: 3.1 µM (≈ 2.49 µg/mL); Activity [30]: inactive; Activity [31]: inactive; Activity [32]: inactive |
